Reference: patent publication US20040132819A1, “Appetite control method” (priority 2002, published 2004)
Where two headings read alike, the source gives them in different places.

Tests used:
[1] = test system: rat brain phospholipid membrane; experiment: Fatty acid levels in rat brain phospholipid membrane; type: in vivo, Sprague-Dawley rat; details: ANOVA main effect
Description: (§1) Total lipid was extracted from rat brains using the Folch extraction method, typical for lipid extraction (Folch et al, 1957). The total lipid extract from each rat brain was separated into neutral lipid and phospholipid fractions using a silica cartridge. The neutral lipid fraction was further separated into MAG and NAE fractions using High Performance Liquid Chromatography (HPLC). Fatty acid composition of the MAG, NAE, and phospholipid fractions was determined using Gas-Liquid Chromatography (GLC) after derivatizing to the corresponding fatty acid methyl esters. The fatty acid composition results correspond to total fatty acids in the membrane phospholipids in brain, and the MAG and NAE fatty acid results represent the concentration of these fatty acyl derivatives in rat brains.
(§2) Rat brain samples, stored frozen at −70° C., were separated into the two hemispheres; one half was used for determination of fatty acids in phospholipid, MAG, and NAE fractions and the other half was refrozen at −70° C. The half brain for analysis was transferred to a 50-mL glass centrifuge tube. Eight mL of methanol was added and the sample homogenized using a Polytron Dispersing and Mixing System (Kinematica, Switzerland) until well blended. The homogenizer probe was rinsed with 2 mL methanol added directly into the centrifuge tube. Twenty mL of chloroform was then added to the sample and mixed vigorously by shaking. The sample was left undisturbed at room temperature for at least 1 hour. Known amounts of internal standards, 9.91 μg of monoheptadecanoin and 3.32 μg of docosatrienoyl ethanolamine, were added. Six mL of 0.9% saline was then added and the sample mixed vigorously by shaking. The sample was then centrifuged for 7 minutes at 2000 rpm at 15° C. until the organic and aqueous layers were well separated using a Beckman Allegra™ 6R Centrifuge; Fullerton, Calif.). The chloroform (bottom) layer was aspirated into a clean 30-mL test tube. The sample was then evaporated to dryness under N2 and was either stored at −20° C. or reconstituted in 500 μL of chloroform. […]

[2] = test system: rat brain monoacylglycerols; experiment: Monoacylglycerol (MAG) levels in rat brain; type: in vivo, Sprague-Dawley rat; details: ANOVA main effect
Description: as §1
Rat brain samples, stored frozen at −70° C., were separated into the two hemispheres; one half was used for determination of fatty acids in phospholipid, MAG, and NAE fractions and the other half was refrozen at −70° C. The half brain for analysis was transferred to a 50-mL glass centrifuge tube. Eight mL of methanol was added and the sample homogenized using a Polytron Dispersing and Mixing System (Kinematica, Switzerland) until well blended. The homogenizer probe was rinsed with 2 mL methanol added directly into the centrifuge tube. […]

[3] = test system: brain NAEs and MAGs; details: piglets fed 0.2% AA (percent total fatty acids); cited from earlier work
[4] = test system: rat brain N-acylethanolamines; experiment: N-acylethanolamine (NAE) levels in rat brain; type: in vivo, Sprague-Dawley rat
Description: as §1, §2

[5] = Postprandial leptin and circulating insulin levels; type: in vivo, Sprague-Dawley rat
Description: The rat pups were sacrificed by decapitation on day 20 after the food intake phase and final body weights were taken. The brain was removed, weighed, and quickly frozen (within 5 minutes) in liquid nitrogen. Brain tissue was stored in a −70° C. freezer. Blood was collected from the neck stump, mixed with heparin, placed on ice, and centrifuged to ensure adequate phase separation to prepare plasma. Plasma was stored at −70° C.
Postprandial leptin levels in the rats fed the ARA-containing formulas during the formula feeding phase were about 20-30% lower than for rats fed the formulas without ARA. Postprandial leptin levels in the rats fed the DHA-containing formulas were about 5-15% higher than for rats fed the formulas without DHA. No differences in circulating insulin levels were found among the groups.

[6] = test system: diet-restricted BALB/c mice; details: cited from earlier work
[7] = pre-satiated rats, subcutaneous, all doses; cited from earlier work
[8] = test system: hypothalamic 20:4n-6 NAE and 20:4n-6 MAG; details: 125 or 250 μg intravenously, within 30 minutes, normal Sprague-Dawley rats; cited from earlier work
[9] = Deaths during artificial rearing; type: in vivo, Sprague-Dawley rat; details: combined rearings; vs 10 rats without DHA, p=0.054
Source text: Male rat pups were removed from dams on postnatal day 6 and artificially reared on rat milk formulas to day 18. This procedure has been described in detail in the literature by Sonnenberg et al, 1982; Smart et al, 1983 and 1984; and Auestad et al, 1989. Similar procedures have been also been described by Ward et al, 1998, and Wainwright et al, 1999. On postnatal day 6, rat pups were randomly assigned to one of the four experimental rat milk formula groups (Table 3.2). The rat pups were lightly anesthetized, fitted with an intragastric cannula, and placed individually in pint-sized plastic containers free floating in a waterbath maintained at 36±2° C. The cannulae for individual rat pups were each connected to syringes filled with one of the four experimental rat milk formulas using polyethylene tubing. The rat pups were fed by intermittent, intragastric infusion, from day 6 to day 18. The formula was delivered to the rat pups for 20 or 30 min each hour, depending on the age of the rat, using a programmable pump housed in a bench-top refrigerator. The pump settings were modified daily to deliver specific quantities of rat milk formula to the rat pups to support normal growth.
Two groups of rats were artificially reared one in February 2002 and one in April 2002. The plan was to cannulate a total of 64 rats, thirty-two per rearing and 8 rats per experimental formula group. […]

Compound: CCCCC/C=C\C/C=C\C/C=C\C/C=C\CCCC(=O)O [AA, arachidonic acid]
- main effect on AA and C22:4n-6 levels in brain phospholipids [1]: increasing
- main effect on brain phospholipid DHA [1]: decreasing
- main effect on linoleic acid (C18:2n-6) and C20:3n-6 levels in brain phospholipids [1]: decreasing
- main effects on n-6 or n-3 MAG in brain [2]: no significant main effects
- 20:4n-6 NAE increase in brain [3]: 4 fold
- main effect on 20:4n-6 NAE in brain ([4]; ANOVA main effect): increasing
- main effect on total n-6 NAE in brain ([4]; ANOVA main effect): increasing
- increase in 20:4n-6 NAE in brain ([4]; rats fed formulas with AA, p=0.008): 40%
- postprandial leptin levels lower than in rats fed formulas without ARA ([5]; ARA-containing formulas during formula feeding phase): 20-30%

Compound: CCCCC/C=C\C/C=C\C/C=C\C/C=C\CCCC(=O)NCCO [20:4n-6 NAE, 5,8,11,14-eicosatetraenamide, (N-2-hydroxyethyl)-(all-Z)]
- food consumption vs control group ([6]; 0.001 mg/kg intraperitoneally, 40% calorie restriction): consumed significantly more food
- food consumption vs control group ([6]; 0.7 or 4 mg/kg intraperitoneally): did not show any significant change
- effect on eating [7]: induced significant overeating

Compound: leptin: peptide hormone secreted from adipose cells
- decrease of hypothalamic levels of 20:4n-6 NAE and 20:4n-6 MAG vs untreated controls [8]: 40-50%

Compound: CC/C=C\C/C=C\C/C=C\C/C=C\C/C=C\C/C=C\CCC(=O)O [DHA, docosahexaenoic acid]
- postprandial leptin levels higher than in rats fed formulas without DHA ([5]; DHA-containing formulas): 5-15%
- rats that died when DHA was in the formula [9]: 3 rats
